Data published in ChEMBL document CHEMBL4828777, “Effect of the Chromone Core Substitution of Dirchromone on the Resultant Biological Activities” (J Nat Prod, 2021).
Values after ≈ are worked out from the molar mass of the structure shown.

What was measured:
[1] = system: Staphylococcus aureus; assay: Antibacterial activity against Staphylococcus aureus ATCC 25923 assessed as reduction in bacterial growth incubated for 24 hrs by microdilution method; assay type: functional
[2] = Cytotoxicity against human WS1 cells assessed as reduction in cell viability incubated for 48 hrs by Hoechst staining based assay; conditions: WS1, 48 h
[3] = system: A549; assay: Cytotoxicity against human A549 cells assessed as reduction in cell viability incubated for 48 hrs by Hoechst staining based assay; assay type: functional; conditions: A549, 48 h
[4] = system: Candida albicans; assay: […] activity against Candida albicans ATCC 10231 assessed as reduction in fungal growth incubated for 24 hrs by microdilution method; assay type: functional
[5] = system: DLD-1; assay: Cytotoxicity against human DLD-1 cells assessed as reduction in cell viability incubated for 48 hrs by Hoechst staining based assay; assay type: functional; conditions: DLD-1, 48 h

Compound: C[S+]([O-])/C=C/c1oc2ccccc2c(=O)c1Cc1ccccc1 (racemic)
- MIC90 [1]: 2.9 µM (≈ 0.941 µg/mL)
- IC50 [2]: 1200 nM
- IC50 [3]: 1300 nM
- MIC90 [4]: > 100 µM
- IC50 [5]: 5.1 µM

Compound: C[S+]([O-])/C=C/c1cc(=O)c2ccc3ccccc3c2o1 (racemic)
- MIC90 [1]: 4.8 µM (≈ 1.36 µg/mL)
- IC50 [2]: 1900 nM
- IC50 [3]: 1400 nM
- MIC90 [4]: > 100 µM
- IC50 [5]: 7 µM

Compound: COc1cc([C@@H]2c3cc4c(cc3[C@@H](O[C@@H]3O[C@@H]5CO[C@@H](C)O[C@H]5[C@H](O)[C@H]3O)[C@H]3COC(=O)[C@H]23)OCO4)cc(OC)c1O [ETOPOSIDE]
- IC50 [2]: 47000 nM
- IC50 [3]: 4800 nM
- IC50 [5]: 0.57 µM

Compound: C[S+]([O-])/C=C/c1cc(=O)c2c(ccc3ccccc32)o1 (racemic)
- MIC90 [1]: 18 µM (≈ 5.12 µg/mL)
- IC50 [2]: 880 nM
- IC50 [3]: 940 nM
- MIC90 [4]: > 100 µM
- IC50 [5]: 4.3 µM

Compound: C[S+]([O-])/C=C/c1cc(=O)c2cc(C#N)ccc2o1 (racemic)
- MIC90 [1]: 5.6 µM (≈ 1.45 µg/mL)
- IC50 [2]: > 10000 nM
- IC50 [3]: > 10000 nM
- MIC90 [4]: > 100 µM
- IC50 [5]: > 10 µM

Compound: COc1cccc2oc(/C=C/[S+](C)[O-])cc(=O)c12 (racemic)
- MIC90 [1]: 43 µM (≈ 11.4 µg/mL)
- IC50 [2]: 3800 nM
- IC50 [3]: 3800 nM
- MIC90 [4]: > 100 µM
- IC50 [5]: > 10 µM

Compound: Cc1c(/C=C/[S+](C)[O-])oc2ccccc2c1=O (racemic)
- MIC90 [1]: 20 µM (≈ 4.97 µg/mL)
- IC50 [2]: 2100 nM
- IC50 [3]: 1500 nM
- MIC90 [4]: > 100 µM
- IC50 [5]: 7.2 µM

Compound: CCCCC(=O)Oc1ccc2oc(/C=C/[S+](C)[O-])cc(=O)c2c1 (racemic)
- MIC90 [1]: 5.1 µM (≈ 1.71 µg/mL)
- IC50 [2]: 1800 nM
- IC50 [3]: 2400 nM
- MIC90 [4]: 47 µM (≈ 15.7 µg/mL)
- IC50 [5]: 6.7 µM

Compound: CCCCOc1ccc2oc(/C=C/[S+](C)[O-])cc(=O)c2c1 (racemic)
- MIC90 [1]: 5.4 µM (≈ 1.65 µg/mL)
- IC50 [2]: 1100 nM
- IC50 [3]: 1400 nM
- MIC90 [4]: 14.1 µM (≈ 4.32 µg/mL)
- IC50 [5]: 4.8 µM

Compound: CC(C)CC(=O)Oc1ccc2oc(/C=C/[S+](C)[O-])cc(=O)c2c1 (racemic)
- MIC90 [1]: 5.1 µM (≈ 1.71 µg/mL)
- IC50 [2]: 1700 nM
- IC50 [3]: 2300 nM
- MIC90 [4]: 72 µM (≈ 24.1 µg/mL)
- IC50 [5]: 6.1 µM

Compound: CC(C)COc1ccc2oc(/C=C/[S+](C)[O-])cc(=O)c2c1 (racemic)
- MIC90 [1]: 5.7 µM (≈ 1.75 µg/mL)
- IC50 [2]: 1200 nM
- IC50 [3]: 1100 nM
- MIC90 [4]: 13.4 µM (≈ 4.11 µg/mL)
- IC50 [5]: 5 µM

Compound: Cc1cccc2oc(/C=C/[S+](C)[O-])cc(=O)c12 (racemic)
- MIC90 [1]: 23 µM (≈ 5.71 µg/mL)
- IC50 [2]: 1900 nM
- IC50 [3]: 1300 nM
- MIC90 [4]: > 100 µM
- IC50 [5]: 5.5 µM

Compound: GENTAMICIN
- MIC90 [1]: 0.09 µM

Compound: CC(C)C(=O)Oc1ccc2oc(/C=C/[S+](C)[O-])cc(=O)c2c1 (racemic)
- MIC90 [1]: 9 µM (≈ 2.88 µg/mL)
- IC50 [2]: 1900 nM
- IC50 [3]: 2400 nM
- MIC90 [4]: > 100 µM
- IC50 [5]: 9.1 µM

Compound: Cc1ccc2oc(/C=C/[S+](C)[O-])cc(=O)c2c1 (racemic)
- MIC90 [1]: 10 µM (≈ 2.48 µg/mL)
- IC50 [2]: 1800 nM
- IC50 [3]: 1700 nM
- MIC90 [4]: > 100 µM
- IC50 [5]: 7 µM

Compound: COc1ccc2c(=O)cc(/C=C/[S+](C)[O-])oc2c1 (racemic)
- MIC90 [1]: 20 µM (≈ 5.29 µg/mL)
- IC50 [2]: 1800 nM
- IC50 [3]: 2200 nM
- MIC90 [4]: > 100 µM
- IC50 [5]: 7.8 µM

Compound: CCCOc1ccc2oc(/C=C/[S+](C)[O-])cc(=O)c2c1 (racemic)
- MIC90 [1]: 11 µM (≈ 3.22 µg/mL)
- IC50 [2]: 1900 nM
- IC50 [3]: 1100 nM
- MIC90 [4]: 39 µM (≈ 11.4 µg/mL)
- IC50 [5]: 6.2 µM

Compound: C[S+]([O-])/C=C/c1cc(=O)c2cc(OC(=O)C(C)(C)C)ccc2o1 (racemic)
- MIC90 [1]: 10 µM (≈ 3.34 µg/mL)
- IC50 [2]: 1000 nM
- IC50 [3]: 1600 nM
- MIC90 [4]: 71 µM (≈ 23.7 µg/mL)
- IC50 [5]: 8 µM

Compound: CCCCCOc1ccc2oc(/C=C/[S+](C)[O-])cc(=O)c2c1 (racemic)
- MIC90 [1]: 4.3 µM (≈ 1.38 µg/mL)
- IC50 [2]: 1700 nM
- IC50 [3]: 1600 nM
- MIC90 [4]: 7 µM (≈ 2.24 µg/mL)
- IC50 [5]: 6.6 µM

Compound: CC(C)Oc1ccc2oc(/C=C/[S+](C)[O-])cc(=O)c2c1 (racemic)
- MIC90 [1]: 11.1 µM (≈ 3.25 µg/mL)
- IC50 [2]: 1400 nM
- IC50 [3]: 1500 nM
- MIC90 [4]: 84 µM (≈ 24.6 µg/mL)
- IC50 [5]: 8 µM

Compound: C[S+]([O-])/C=C/c1cc(=O)c2cc(O)ccc2o1 (racemic)
- MIC90 [1]: 24 µM (≈ 6.01 µg/mL)
- IC50 [2]: 7500 nM
- IC50 [3]: 10500 nM
- MIC90 [4]: > 100 µM
- IC50 [5]: > 10 µM

Compound: C[C@@H]1[C@H](O)[C@@H](C)/C=C/C=C/C=C/C=C/C=C/C=C/C=C/[C@H](O[C@@H]2O[C@H](C)[C@@H](O)[C@H](N)[C@@H]2O)C[C@@H]2O[C@](O)(C[C@@H](O)C[C@@H](O)[C@H](O)CC[C@@H](O)C[C@@H](O)CC(=O)O[C@H]1C)C[C@H](O)[C@H]2C(=O)O [AMPHOTERICIN B]
- MIC90 [4]: 1.4 µM (≈ 1.29 µg/mL)

Compound: Cc1ccc2c(=O)cc(/C=C/[S+](C)[O-])oc2c1 (racemic)
- MIC90 [1]: 10 µM (≈ 2.48 µg/mL)
- IC50 [2]: 1900 nM
- IC50 [3]: 2000 nM
- MIC90 [4]: > 100 µM
- IC50 [5]: 7 µM

Compound: CCC(=O)Oc1ccc2oc(/C=C/[S+](C)[O-])cc(=O)c2c1 (racemic)
- MIC90 [1]: 10 µM (≈ 3.06 µg/mL)
- IC50 [2]: 2100 nM
- IC50 [3]: 2400 nM
- MIC90 [4]: > 100 µM
- IC50 [5]: 9 µM

Compound: Cc1cccc2c(=O)cc(/C=C/[S+](C)[O-])oc12 (racemic)
- MIC90 [1]: 10 µM (≈ 2.48 µg/mL)
- IC50 [2]: 2200 nM
- IC50 [3]: 1700 nM
- MIC90 [4]: > 100 µM
- IC50 [5]: 6.8 µM

Compound: COc1cccc2c(=O)cc(/C=C/[S+](C)[O-])oc12 (racemic)
- MIC90 [1]: 11 µM (≈ 2.91 µg/mL)
- IC50 [2]: 1900 nM
- IC50 [3]: 2200 nM
- MIC90 [4]: > 100 µM
- IC50 [5]: 9 µM

Compound: CC(=O)Oc1ccc2oc(/C=C/[S+](C)[O-])cc(=O)c2c1 (racemic)
- MIC90 [1]: 11 µM (≈ 3.22 µg/mL)
- IC50 [2]: 2500 nM
- IC50 [3]: 4100 nM
- MIC90 [4]: > 100 µM
- IC50 [5]: > 10 µM

Compound: CCCC(=O)Oc1ccc2oc(/C=C/[S+](C)[O-])cc(=O)c2c1 (racemic)
- MIC90 [1]: 7.2 µM (≈ 2.31 µg/mL)
- IC50 [2]: 1500 nM
- IC50 [3]: 2200 nM
- MIC90 [4]: > 100 µM
- IC50 [5]: 8.7 µM

Compound: CCOc1ccc2oc(/C=C/[S+](C)[O-])cc(=O)c2c1 (racemic)
- MIC90 [1]: 11.4 µM (≈ 3.17 µg/mL)
- IC50 [2]: 2000 nM
- IC50 [3]: 1500 nM
- MIC90 [4]: 67 µM (≈ 18.6 µg/mL)
- IC50 [5]: 4.9 µM

Compound: C[S+]([O-])/C=C/c1cc(=O)c2cc(Br)ccc2o1 (racemic)
- MIC90 [1]: 2.5 µM (≈ 0.783 µg/mL)
- IC50 [2]: 1000 nM
- IC50 [3]: 1100 nM
- MIC90 [4]: 47 µM (≈ 14.7 µg/mL)
- IC50 [5]: 4.5 µM

Compound: CC(C)CCOc1ccc2oc(/C=C/[S+](C)[O-])cc(=O)c2c1 (racemic)
- MIC90 [1]: 2.8 µM (≈ 0.897 µg/mL)
- IC50 [2]: 850 nM
- IC50 [3]: 1000 nM
- MIC90 [4]: 8.4 µM (≈ 2.69 µg/mL)
- IC50 [5]: 4.1 µM

Compound: C[S+]([O-])/C=C/c1cc(=O)c2cc(F)ccc2o1 (racemic)
- MIC90 [1]: 5.3 µM (≈ 1.34 µg/mL)
- IC50 [2]: 1700 nM
- IC50 [3]: 2100 nM
- MIC90 [4]: > 100 µM
- IC50 [5]: 7 µM

Compound: COc1ccc2oc(/C=C/[S+](C)[O-])cc(=O)c2c1 (racemic)
- MIC90 [1]: 6.1 µM (≈ 1.61 µg/mL)
- IC50 [2]: 1300 nM
- IC50 [3]: 1600 nM
- MIC90 [4]: > 100 µM
- IC50 [5]: 5.7 µM

Compound: C[S+]([O-])/C=C/c1cc(=O)c2cc3c(cc2o1)OCO3 (racemic)
- MIC90 [1]: 39 µM (≈ 10.9 µg/mL)
- IC50 [2]: 2000 nM
- IC50 [3]: 2100 nM
- MIC90 [4]: > 100 µM
- IC50 [5]: 6 µM

Compound: C[S+]([O-])/C=C/c1cc(=O)c2ccccc2o1 (racemic)
- MIC90 [1]: 9 µM (≈ 2.11 µg/mL)
- IC50 [2]: 2000 nM
- IC50 [3]: 1900 nM
- MIC90 [4]: > 100 µM
- IC50 [5]: 8 µM

Compound: C[S+]([O-])/C=C/c1cc(=O)c2cc(Cl)ccc2o1 (racemic)
- MIC90 [1]: 2.7 µM (≈ 0.726 µg/mL)
- IC50 [2]: 1600 nM
- IC50 [3]: 1700 nM
- MIC90 [4]: > 100 µM
- IC50 [5]: 6.5 µM
